Assay [1] has as its system Hepa1-6 cells. Kind of assay: Clonogenicity (colony formation) in Hepa1-6 liver cancer cells. Format: cell-based, murine. The note with it: Mus musculus, 168 h; Hepa1-6 (m), 7 days treatment. The procedure:
(§1) Liver cancer cell lines Hep3B (human) and Hepa1-6 (murine) were maintained in either Eagle's Minimum Essential Medium (Corning) for Hep3B cells or High Glucose DMEM (Gibco) for Hepa1-6 cells, supplemented with 10% FBS (Gibco) and 1% Antibiotic-Antimycotic (Thermo-Fisher Scientific). Each cell line was seeded at 1000 cells/well in 12-well plates. The next day, the media were replaced, and cells were treated with 0 (vehicle control, 0.1% DMSO), 1, 5, 10, 30, 50, or 100 μM Compound I-32, I-61, I-1, or III-1 (final concentration of DMSO 0.1%) for 7 days. On day 9, the media were removed, and cells were fixed with 10% formalin (500 μl) for 10 minutes at room temperature, washed with 1×PBS and stained with crystal violet. After 10 minutes the excess stain was removed by rinsing three times with tap water. The plates were allowed to dry overnight, then the number of colonies (>50 cells) in each well were counted using light microscopy as described previously by Villiani L. A., et al.

Assay [2] relates to Hep3B cells. The experiment in a line: Cancer cell proliferation (PrestoBlue) in Hep3B cells. The class given is cell-based, human. Particulars: Hep3B (h), 72 hours. The procedure:
(§2) Human liver cancer cells Hep3B and murine liver cancer cells Hepa1-6, respectively, were seeded at a cell density of 3000 cells/well in 96-well plates using either Eagle's Minimum Essential Medium (Corning) for Hep3B or Dulbecco's Modified Eagle's Medium (DMEM) High Glucose (Gibco) for Hepa1-6 cells, supplemented with 10% fetal bovine serum (FBS, Gibco) and 1% Antibiotic-Antimycotic solution (Thermo-Fisher Scientific). The next day, the cells were treated with 0 (vehicle control), 0.1, 0.5, 1, 5, 10, 30, 50 or 100 μM Compound I-32, I-61, I-1, or III-1 (final concentration of DMSO 0.1%) and were allowed to grow for 72 hours at 37° C. On day 5, 10 μl of PrestoBlue™ Cell Viability Reagent (Invitrogen) was added to each well and the plate was incubated at 37° C. for an additional 1-2 hours.

For assay [3], the system named is Hep3B cells. Kind of assay: Combination study with sorafenib or lenvatinib, proliferation in Hep3B cells. Particulars: for Synergistic or additive effect on antiproliferative activity (CompuSyn analysis): in the presence of sorafenib or lenvatinib, FIGS. 8A-8D; for IC50: read-out: IC50 for inhibition of proliferation.
Procedure: (§3) Hep3B (supplied by ATCC) or Hepa1-6 (supplied by ATCC) cells were seeded in 96-well plates at a density of 500 cells/well with complete media. […] Then, cells were incubated in an incubator for 72 h. On day 5, 10 μl of presto blue (Invitrogen, cat # A13261) cell viability reagent was added in each 96-well plate and incubated at 37° C. for 1-2 h. After incubation, fluorescence was measured with an excitation/emission wavelength of 560/590 nm. […] Proliferation IC50 values were calculated using a non-linear regression model in Graph pad Prism 8.
Assay [4] relates to Hepa1-6 cells. Kind of assay: Cancer cell proliferation (PrestoBlue) in Hepa1-6 cells. The note with it: Hepa1-6 (m), 72 hours. Format: cell-based, murine. As to the method:
as §2

In assay [5] the test system is Hep3B cells. Kind of assay: Clonogenicity (colony formation) in Hep3B liver cancer cells. The class given is cell-based. Particulars: Homo sapiens, 168 h, 7 days treatment. As to the method:
as §1

For assay [6], the system named is Hepa1-6 cells. Kind of assay: Combination study with sorafenib or lenvatinib, proliferation in Hepa1-6 cells.
Procedure: as §3
A further assay deals with primary hepatocytes (m). Kind of assay: De novo lipogenesis (DNL) in mouse primary hepatocytes. Format: cell-based. Particulars: Hepatocyte.

SMILES strings stand for the structures.

For `CC(C)(CCCc1ccccc1CCCC(C)(C)C(=O)O)C(=O)O` [Compound I-61, 5,5′-(1,2-Phenylene)bis(2,2-dimethylpentanoic acid)], the IC50 with Hepa1-6 cells [1] came to 73.4 µM; in the assay on Hep3B cells [5], 57.3 µM. Moreover, the “Cancer Cell Proliferation % reduction vs control at 100 μM, Mean (Standard Deviation)” value is given as 35.7(5.8) % in the assay with Hep3B cells [2] and 21.8 (8.9) % with Hepa1-6 cells [4]. Besides, in the assay on Hep3B cells [3] (Hep3B cells), the “Synergistic or additive effect on antiproliferative activity (CompuSyn analysis)” value is “synergistic inhibition”.
In the case of `COc1cc2nccc(Oc3ccc(NC(=O)NC4CC4)c(Cl)c3)c2cc1C(N)=O` [lenvatinib, reference compound], the IC50 with Hepa1-6 cells [6] (Mus musculus, Hepa1-6, read-out: IC50 for inhibition of proliferation) was 30 µM; with Hep3B cells [3] (Homo sapiens, Hep3B), 0.5 µM.
Take `CC(C)(CCCCc1ccc(CCCCC(C)(C)C(=O)O)cc1)C(=O)O` [Compound I-1, 6,6′-(1,4-phenylene)bis(2,2-dimethylhexanoic acid)]: the results for the IC50 in the assay with Hepa1-6 cells [1], in the assay on primary hepatocytes (m) and in the assay on Hep3B cells [5] were 55.6 µM, 12.1 µM and 53.9 µM, respectively. Moreover, the “Cancer Cell Proliferation % reduction vs control at 100 μM, Mean (Standard Deviation)” value is reported as 41.8 (8.4) % with Hep3B cells [2] and 25.9 (5.7) % with Hepa1-6 cells [4].
As to `CC(C)(CCCCc1cccc(CCCCC(C)(C)C(=O)O)c1)C(=O)O` [Compound I-32, 6-[3-(5-Carboxy-5-methylhexyl)-phenyl]-2,2-dimethylhexanoic acid], the IC50 with Hepa1-6 cells [1] worked out at 52.3 µM; in the assay on primary hepatocytes (m), 8.3 µM; in the assay on Hep3B cells [5], 41.7 µM. In addition, the “Cancer Cell Proliferation % reduction vs control at 100 μM, Mean (Standard Deviation)” value is listed as 30.8 (2.6) % with Hep3B cells [2] and 18.6 (3.1) % in the assay with Hepa1-6 cells [4]. Further, the “Synergistic or additive effect on antiproliferative activity (CompuSyn analysis)” value with Hep3B cells [3] (Hep3B cells) is reported as “synergistic inhibition”.
Turning to `CNC(=O)c1cc(Oc2ccc(NC(=O)Nc3ccc(Cl)c(C(F)(F)F)c3)cc2)ccn1` [sorafenib, reference compound], the IC50 worked out at 5 µM with Hepa1-6 cells [6] (read-out: IC50 for inhibition of proliferation, Hepa1-6 cells, in the absence of a compound of the invention, separate experiment (data not shown)) and 3 µM in the assay with Hep3B cells [3] (Hep3B cells, in the absence of a compound of the invention, separate experiment (data not shown)).
With `CC(C)(CCCc1ccc(CCCC(C)(C)C(=O)O)cc1)C(=O)O` [III-1, 1,4-Bis(4-carboxy-4-methylpentyl)benzene], the IC50 came out at 61 µM in the assay on Hepa1-6 cells [1] and 55.6 µM in the assay with Hep3B cells [5]. In addition, the “Cancer Cell Proliferation % reduction vs control at 100 μM, Mean (Standard Deviation)” value was 29.7 (6.2) % with Hep3B cells [2] and 15.7 (6.7) % in the assay on Hepa1-6 cells [4].

(Values after US20230007838A1, “FUNCTIONALIZED LONG-CHAIN HYDROCARBON MONO- AND DI-CARBOXYLIC ACIDS AND THEIR USE FOR THE PREVENTION OR TREATMENT OF DISEASE” (ESPERVITA THERAPEUTICS, INC., priority 2019, published 2023).)
